Blank lines part the entries; values can stand above or below the compound they belong to.
Columns and labels:
BRD4-1 [1] = target: T1, BRD4-1 (Homo sapiens, UniProt O60885); assay: BRD4-1 Ligand KI assay (TR-FRET, Cy5 labeled probe displacement); type: binding
T1 construct: made in house; host or cells: Escherichia coli
Method: (§1) Binding of the two tandem bromodomains, BRD4-I and BRD4-2, to a Cy5 labeled probe/ligand (Compound 1020-501) were measured using a homogeneous time resolved fluorescence resonance energy transfer (TR-FRET) assay.
(§2) The labeled ligand specifically binds BRD4-1 and BRD4-2 and can be displaced by a small molecule inhibitor that shares a similar or overlapping binding site. BRD4-I and BRD4-2 were expressed and purified from Escherichia coli as N-terminal His6-tagged proteins. A Eu-cryptate labeled anti-His antibody (Perkin Elmer) was used to specifically bind BRD4. […] Assays were performed in 50 mM Hepes (pH 7.5), 150 mM NaCl, 0.1 mg/ml BSA, 0.01% (v/v) Brij, 0.5% (v/v) DMSO and 1.0 nM labeled ligand at the following concentrations for each BRD4 isoform: 2 nM BRD4-1 and 0.5 nM BRD4-2. After an assay reaction time of 60 minutes at 25° C., binding was measured with 2 nM Eu-cryptate labeled anti-His antibody. TR-FRET signal was detected on an Envision plate reader (Ex: 320 nm; Em: 615/665 nm; 100 μs delay and 200 μs read window). […] All IC50 values represent geometric mean values of a minimum of four determinations. The IC50 values were converted to Ki values (dissociation constant for BRD4-inhibitor complex) using the Cheng and Prusoff equation for a competitive inhibitor mode of action. These assays generally produced results within 3-fold of the reported mean.

BRD4-2 [2] = target: T2, BRD4-2 (Homo sapiens, UniProt O60885); assay: BRD4-2 Ligand KI assay (TR-FRET, Cy5 labeled probe displacement); type: binding
T2 construct: made in house; host or cells: Escherichia coli
Method: as §1, §2

c-Myc in MM.1S cells = assay: c-Myc down regulation assay (MSD) in MM.1S cells; type: cell-based; settings: Homo sapiens, MM1.S, 24 hrs incubation
Method: An enzyme linked immunosorbent assay using the Meso Scale Diagnostic (MSD) technology was used to detect levels of c-Myc produced in MM.1S cells (ATCC). MM.1S cells were cultured in RPMI-1640 media (Corning), supplemented with 10% FBS (Hyclone), 1% penicillin-streptomycin (Cellgro), 2-mercaptoethanol (Gibco) and seeded onto 384-tissue culture treated filter binding plates (Millipore) at a density of 40K cells/well containing titrations of small molecule inhibitors or DMSO (0.4%) in a volume of […] of media. After an incubation time of 24 hrs, cells were lysed (1× lysis buffer (Thermo) supplemented with protease and phosophatase inhibitor cocktail (Thermo)) and the plates centrifuged (1000 rpm, 1 min) to capture c-Myc on MSD plates coated with a monoclonal c-Myc antibody (Origene). Assay wells were washed (3× Invitrogen wash buffer) and probed with a polyclonal c-Myc antibody (Abeam) and MSD detection antibody solution in order to detect levels of c-Myc on the MSD platform. c-Myc capture was reported in pg/ml based on a standard curve using recombinant c-Myc protein (Prosci). EC50 values were calculated from the fit of the dose-response curves to a four-parameter equation. All EC50 values represent geometric mean values of a minimum of four determinations. These assays generally produced results within 3-fold of the reported mean.

MT-4 cells = assay: MT-4 proliferation assay; type: cell-based; settings: Homo sapiens, MT4, 120 h; Table 2; 5 days, Cell Titer Glo luminescence
Method: Compounds were tested in a standardized high-throughput 384-well assay format. Each compound was serially diluted 3-fold in 100% DMSO in polypropylene 384-well plates using a Biomek FX Workstation, and 0.4 μL compound added to an assay plate containing 40 μL RPMI media. Compounds were arranged in a horizontal pattern, with 10 concentrations per compound, and 8 compounds added per plate. Due to low DMSO tolerability, the final DMSO concentration never exceeded 0.5% (v/v). Each assay plate contained 10 μM Puromycin and 0.5% DMSO in RPMI-1640 as positive and negative controls respectively. MT-4 cells (HTLV-1 transformed, human T lymphoblastoid cells, NIH Aids Reagent program) were added in volumes of 35 μL per well and 2,000 cells per well using a Biotek uFlow Workstation (Biotek, Winooski, Vt.), and the plates subsequently incubated for 5 days at 37° C. in an incubator set at 5% CO2 and 90% humidity.
After 5 days, 22 μL Cell Titer Glo (Promega) was added to the assay plates with a Biotek uFlow Workstation. Plates were subsequently placed on a Perkin Elmer Envision Plate Reader for 5 minutes before the luminescence signal was read.

MM.1S cells = assay: MM.1S viability assay (CellTiter Glo); type: cell-based; settings: Homo sapiens, MM1.S, 72 hr incubation, read-out: MM.1S Cell viability (EC50)
Method: For cell viability in the MM.1S cell line, cells were seeded onto 384-tissue culture treated plates (Greiner) at a density of 60K cells/well containing titrations of small molecule inhibitors or DMSO (0.2%). After 72 hr incubation cells were analyzed for cell viability by addition of CellTiter Glo (Promega) to the assay plates. After 15 min incubation at room temperature the signal from the viable cells was analyzed on an Envision plate reader (Perkin Elmer). EC50 values were calculated from the fit of the dose-response curves to a four-parameter equation. All EC50 values represent geometric mean values of a minimum of four determinations. These assays generally produced results within 3-fold of the reported mean.

BRD4-2 [3] = target: T2, BRD4-2; assay: HTRF (TR-FRET) assay, BRD4-2 binding to acetylated histone H4 peptide; settings: 120 nM BRD4-2, 200 nM H4 peptide, 60 minutes at 25° C.; geometric mean of a minimum of four determinations; read-out: HTRF BRD4-2 (IC50)
Method: (§3) Binding of the two tandem bromodomains, BRD4-1 and BRD4-2, to an acetylated histone H4 peptide was measured using a homogeneous time resolved fluorescence resonance energy transfer (TR-FRET) assay. […] BRD4-1 and BRD4-2 were expressed and purified from Escherichia coli as N-terminal His6-tagged proteins. An XL665 labeled anti-His antibody (Cisbio) was used to specifically bind BRD4 and a cryptate labeled streptavidin protein was used because it specifically recognized the biotinylated H4 peptide. […] After an assay reaction time of 60 minutes at 25° C., binding was measured with 2 nM crytptate labeled streptavidin and 10 nM anti-His-XL665 antibody. TR-FRET signal was detected on an Envision plate reader (Ex: 320 nm; Em: 615/665 nm; 100 us delay and 200 μs read window). […] All IC50 values represent geometric mean values of a minimum of four determinations.

BRD4-1 [4] = target: T1, BRD4-1; assay: Alpha assay, BRD4-1 binding to acetylated histone H4 peptide; settings: 15 nM BRD4-1, 200 nM H4 peptide, 60 minutes at 25° C.; geometric mean of a minimum of four determinations; read-out: Alpha Assay (IC50)
Method: Binding of the bromodomain BRD4-I to an acetylated histone H4 peptide was measured using a bead-based Amplified Luminescent Proximity Homogeneous Assay (ALPHA). […] BRD4-I was expressed and purified from Escherichia coli as an N-terminal His6-tagged protein. Nickel-Chelate ALPHA acceptor beads (Perkin Elmer) were used to specifically bind BRD4-1 and ALPHA streptavidin donor beads (Perkin Elmer) were used because they specifically recognized the biotinylated H4 peptide. […] Assays were performed in 50 mM Hepes (pH 7.5), 150 mM NaCl, 0.1 mg/ml BSA, 0.01% (v/v) Brij, 0.5% (v/v) DMSO, 200 nM H4 peptide and 15 nM of BRD4-1 protein. After an assay reaction time of 60 minutes at 25° C., binding was measured with 20 μg/ml streptavidin donor beads and 20 μg/ml nickle-chelate acceptor beads. ALPHA signal was detected on an Envision plate reader (Ex: 320 nm; Em: 570 nm; Ex time: 180 ms). […] All IC50 values represent geometric mean values of a minimum of four determinations.

BRD4-1 [5] = target: T1, BRD4-1; assay: HTRF (TR-FRET) assay, BRD4-1 binding to acetylated histone H4 peptide; settings: 60 nM BRD4-1, 200 nM H4 peptide, 60 minutes at 25° C.; geometric mean of a minimum of four determinations; read-out: HTRF BRD4-1 (IC50)
Method: as §3

[6] = 2 nM BRD4-1, 1.0 nM labeled ligand, 60 minutes at 25° C., read-out: BRD4-1 Ligand KI (IC50)
[7] = 0.5 nM BRD4-2, 1.0 nM labeled ligand, 60 minutes at 25° C., read-out: BRD4-2 Ligand KI (IC50)

- EC50 (c-Myc in MM.1S cells): 5.7 nM
- EC50 (MM.1S cells): 17.8 nM
Compound: Cc1noc(C)c1-c1cc(C(O)(c2cccnn2)C2CCCO2)c2nc(C3CC3)[nH]c2c1 (single isomer, unassigned) [Compound 1020-289, (2-cyclopropyl-6-(3,5-dimethylisoxazol-4-yl)-1H-benzo[d]imidazol-4-yl)(pyridazin-3-yl)(tetrahydrofuran-2-yl)methanol]
- EC50 (MT-4 cells): 4.2 nM

- IC50 (BRD4-1 [1]; [6]): 7.2 nM
- IC50 (BRD4-2 [2]; [7]): 11.7 nM
Compound: Cc1noc(C)c1-c1cc(C(O)(c2ccccn2)c2ccccn2)c2nc(C3CC3)[nH]c2c1 [Compound 1020-104, (2-cyclopropyl-6-(3,5-dimethylisoxazol-4-yl)-1H-benzo[d]imidazol-4-yl)di(pyridin-2-yl)methanol]

- IC50 (BRD4-1 [1]; [6]): 10.4 nM
- IC50 (BRD4-2 [2]; [7]): 13.5 nM
Compound: Cc1noc(C)c1-c1cc(C(O)(c2ccccc2)c2cccnc2)c2nc(C3CC3)[nH]c2c1 (centres unmarked) [Compound 1020-112, (2-cyclopropyl-6-(3,5-dimethylisoxazol-4-yl)-1H-benzo[d]imidazol-4-yl)(phenyl)(pyridin-3-yl)methanol]

- IC50 (BRD4-1 [1]; [6]): 10.7 nM
- IC50 (BRD4-2 [2]; [7]): 12.8 nM
Compound: Cc1noc(C)c1-c1cc(C(O)(c2ccccc2)c2ccccn2)c2nc(C3CC3)[nH]c2c1 (centres unmarked) [Compound 1020-113, (2-cyclopropyl-6-(3,5-dimethylisoxazol-4-yl)-1H-benzo[d]imidazol-4-yl)(phenyl)(pyridin-2-yl)methanol]

- IC50 (BRD4-2 [3]): 399 nM
- IC50 (BRD4-1 [4]): 52.8 nM
- IC50 (BRD4-1 [5]): 187 nM
Compound: CCC1CCC(=O)N1c1cc(-c2c(C)noc2C)cc2[nH]c(C3CC3)nc12 (centres unmarked) [Compound 1020-137, 1-(2-Cyclopropyl-6-(3,5-dimethylisoxazol-4-yl)-1H-benzo[d]imidazol-4-yl)-5-ethylpyrrolidin-2-one]

- IC50 (BRD4-1 [1]; [6]): 4.7 nM
- IC50 (BRD4-2 [2]; [7]): 5.6 nM
Compound: Cc1noc(C)c1-c1cc(C(O)(c2ncccn2)c2ccc(F)cc2F)c2nc(C3CC3)[nH]c2c1 (centres unmarked) [Compound 1020-257, (2-Cyclopropyl-6-(3,5-dimethylisoxazol-4-yl)-1H-benzo[d]imidazol-4-yl)(2,4-difluorophenyl)(pyrimidin-2-yl)methanol]

Continued, compound first:

Compound: Cc1cccc(C(O)(c2cc(-c3c(C)noc3C)cc3[nH]c(C4CC4)nc23)C2CCCO2)n1 (racemic) [Compound 1020-114, (2-cyclopropyl-6-(3,5-dimethylisoxazol-4-yl)-1H-benzo[d]imidazol-4-yl)(6-methylpyridin-2-yl)(tetrahydrofuran-2-yl)methanol]
- IC50 (BRD4-1 [1]; [6]): 3.8 nM
- IC50 (BRD4-2 [2]; [7]): 2.7 nM

Compound: Cc1noc(C)c1-c1cc(C(O)(c2nccs2)c2nccs2)c2nc(C3CC3)[nH]c2c1 [Compound 1020-103, (2-cyclopropyl-6-(3,5-dimethylisoxazol-4-yl)-1H-benzo[d]imidazol-4-yl)di(thiazol-2-yl)methanol]
- IC50 (BRD4-1 [1]; [6]): 4 nM
- IC50 (BRD4-2 [2]; [7]): 12.4 nM

Compound: CCC(O)(CC)c1cc(-c2c(C)noc2C)cc2c1nc(C1CC1)n2C [Compound 1020-132, 3-(2-Cyclopropyl-6-(3,5-dimethylisoxazol-4-yl)-1-methyl-1H-benzo[d]imidazol-4-yl)pentan-3-ol]
- IC50 (BRD4-2 [3]): 883 nM
- IC50 (BRD4-1 [4]): 573 nM
- IC50 (BRD4-1 [5]): 610 nM

Compound: Cc1noc(C)c1-c1cc(N2C(=O)CCC2C)c2nc(C3CC3)[nH]c2c1 (centres unmarked) [Compound 1020-136, 1-(2-Cyclopropyl-6-(3,5-dimethylisoxazol-4-yl)-1H-benzo[d]imidazol-4-yl)-5-methylpyrrolidin-2-one]
- IC50 (BRD4-2 [3]): 727 nM
- IC50 (BRD4-1 [4]): 513 nM
- IC50 (BRD4-1 [5]): 823 nM

Compound: Cc1noc(C)c1-c1cc(C(O)(c2ccccn2)c2ccccn2)c2nc(C3CC3)[nH]c2c1F [Compound 1020-224, (2-cyclopropyl-6-(3,5-dimethylisoxazol-4-yl)-7-fluoro-1H-benzo[d]imidazol-4-yl)di(pyridin-2-yl)methanol]
- IC50 (BRD4-1 [1]): 10.8 nM
- IC50 (BRD4-2 [2]): 20.2 nM

From patent publication US20160075695A1, “BENZIMIDAZOLE DERIVATIVES AS BROMODOMAIN INHIBITORS” (Gilead Sciences, Inc., priority 2013, published 2016)
